Experimental findings from patent US12150933B2, “IL-8 inihibitors for use in the treatment of some urological disorders” (DOMPÉ FARMACEUTICI S.P.A., priority 2015, dated 2024) are described below.

In data set [1] the test system is CYP-induced visceral pain. Kind of data set: Chronic preventive treatment in CYP-induced visceral pain model in rats; comparison with Mesna. The conditions noted are these: 7 mg/kg twice daily p.o. for 7 days. Type of data set: in vivo, rat. Here is the method: The effect of chronic preventive administration of Compd. 1 in a visceral pain model induced by repeated administration of cyclophosphamide (CYP) in conscious rats was evaluated.
The oral dose of 7 mg/kg of Compd. 1 was chosen on the basis of previous evaluations. Compd. 1 or vehicle was orally administered to animals twice daily (according to the PK profile of the molecule) for 7 days. Mesna_or vehicle was intraperitoneally administered several times a day for 3 days (when CYP was administered).
Repeated treatment with CYP (75 mg/kg i.p. for 3 times, every 3rd day), induced a strong decrease in withdrawal thresholds to noxious stimulus measured at the level of low abdomen and hind-paws. Nociceptive hypersensitivity was evaluated. In the control group, nociceptive thresholds of abdomen and hind-paws were not altered after the treatment with vehicle.
Behavioral testing was performed at 4 different times: • before CYP administration (in order to acquire basal values) • after CYP administration and before treatment with the tested compound, to verify the pathology (in order to acquire pre-treatment values) • after treatment, 42 or 48 hours from the last administration of Compd. 1 or Mesna.

For another data set, the system named is CYP-induced cystitis. Put plainly: Microscopic examination of urinary bladders after chronic preventive administration. The data set is classed as in vivo, rat. The conditions noted are these: 12 hours before and twice per day from first day of CYP for 7 days. An excerpt: At the end of the study, the urinary bladders were opened, placed in 10% buffered formalin and stored at room temperature until completion of hystomorphological analysis (see Example 6 below).
At the end of the efficacy study of chronic preventive administration, the urinary bladders were opened, placed in 10% buffered formalin and stored at room temperature until hystomorphological analysis.
Treatment with Compd. […] 1.

The next data set deals with KC/GRO-α. Put plainly: KC/GRO-α plasma content after preventive treatment in CYP-induced cystitis model in rats. Type of data set: in vivo, rat. The following applies: day 9; 20 mg/kg p.o. 12 hours before first CYP, then 7 mg/kg p.o. twice a day for 7 days. Here is the method:
The effect of chronic preventive administration of Compd. 1 on KC/GRO-α plasma content in a CYP-induced cystitis model in conscious rats was evaluated.
To elicit cystitis, rats received intraperitoneal (i.p.) injections of CYP (75 mg/Kg every third day for three times). A single high dose of Compd. 1 (20 mg/kg) was orally administered 12 hours before the first CYP treatment; subsequently Compd. 1 (7 mg/kg p.o.) was administered twice a day for 7 days (from day 1 to day 7 from the first CYP administration). The oral dose of 7 mg/kg of Compd. 1 was chosen on the basis of previous evaluations. Animals blood was collected at day 7 (the same day of the last CYP treatment) at day 8 (about 24 hrs after last CYP administration) and at day 9 (about 48 hrs after last CYP administration). Each experimental group was composed of 10 animals, 10 animals treated with CYP+vehicle compound, 10 animals treated with CYP+Compd. 1, and 10 animals (sham) treated with CYP vehicle+vehicle compound.
The same animal was subjected to 3 blood serial samplings in order to evaluate the time-course of inflammatory mediators content. After thawing and centrifuge to remove any aggregates and lipid residues that could interfere with the reading, the samples were evaluated through quantitative analysis of KC/GRO-α.

A short description of data set [2]: Pharmacokinetic profile after oral administration. The data set is classed as in vivo.

Each structure is given as a SMILES string. Entries after “also recorded” stand apart in the source; their conditions may differ.

`C[C@H](C(=O)O)c1ccc(Nc2nc(C(F)(F)F)cs2)cc1` [Compd. 1, (2S)-2-(4-{[4-(trifluoromethyl)-1,3-thiazol-2-yl]amino}phenyl) propanoic acid]: in data set [1], the “nociceptive hypersensitivity in hind-paws plantar surface” value is “completely reversed the nociceptive hypersensitivity in hind-paws plantar surface” and the “withdrawal thresholds in the abdomen” value is recorded as “almost complete recovery of withdrawal thresholds in the abdomen”. Besides, the “inflammatory, degenerative, proliferative and hemorrhagic lesions caused by CYP” value in the data set with CYP-induced cystitis was “clearly reduced the inflammatory, degenerative, proliferative and hemorrhagic lesions caused by CYP”. Further, the GRO-α/KC blood levels entry in the data set on KC/GRO-α is recorded as “significantly reduces GRO-α/KC blood levels at day 9”. For the same compound, in data set [2] (in vivo), the “distribution in the tissues” value was “poorly distributed in the tissues” and the elimination from plasma result is “gradually eliminated from plasma”. Further, the oral bioavailability result in data set [2] (in vivo, po) is “excellent oral bioavailability”. The absorption entry in data set [2] (oral route) is given as “rapid absorption; also recorded: well absorbed by the oral route”. Further, in data set [2] (plasma), the “time of maximum concentration in plasma after administration” value came out at 2 h. Also, the Cmax in data set [2] (plasma, oral, read-out: maximum concentration (Cmax) in plasma) came to 47400 ± 25400 ng/mL.
